Data: patent publication US4940715A, “5H-pyrazolo[4,3-A] quinolizin-5-one compounds exhibiting therapeutic activities” (Kissei Pharmaceutical Co., Ltd., priority 1988, dated 1990)

Key:
[1] = system: IgE secreted into culture supernatant by BALB/c mouse spleen cells; assay: Determination of IgE produced in in vitro culture of spleen cells (adoptive secondary immune response against DNP-As), ELISA; type: cell-based; settings: 96 h, spleen cells 5×10^6 cells/ml, 4 days, 37° C.; for inhibition at 10 µg/mL: 10 μg/ml
Description: (§1) The antiallergic activities of the 5H-pyrazolo[4,3-a]quinolizin-5-one compounds of formula (I) are also confirmed by inhibition of the rat homologous passive cutaneous anaphylaxis (hereinafter referred to as PCA) reaction.
(§2) Determination of Igs produced in in vitro culture
(§3) BALB/c mice were immunized intraperitoneally with 5 μg of DNP-As adsorbed on 4 mg aluminum hydroxide gel. Four weeks after the immunization, the spleens were excised from the mice and 5×10^7 spleen cells were transferred intravenously into the recipient mice which had been exposed to 600 rad of X-ray irradiation. Immediately after the cell transfer, the recipients were then immunized intraperitoneally with 5 μg of DNP-As adsorbed on 4 mg aluminum hydroxide gel to induce adoptive secondary immune response. Further 4 weeks after the immunization of recipients, the spleens were excised from them and the spleen cell suspensions containing 5×10^6 cells/ml were cultured with or without a compound to be tested in 96-well micro-titer plates at 37° C. for 4 days. IgE and IgG secreted into the culture supernatant was each determined correspondingly by enzyme-linked immunosolvent assay and the inhibitory effect was calculated according to the following equation. [formula]

[2] = system: IgG secreted into culture supernatant by BALB/c mouse spleen cells; assay: Determination of IgG produced in in vitro culture of spleen cells (adoptive secondary immune response against DNP-As), ELISA; type: cell-based; settings: 96 h, spleen cells 5×10^6 cells/ml, 4 days, 37° C.; for inhibition at 10 µg/mL: 10 μg/ml
Description: as §1, §2, §3

Compound	inhibition at 10 µg/mL [1]	inhibition at 10 µg/mL [2]	inhibition at 20 µg/mL ([1]; 20 μg/ml)	inhibition at 20 µg/mL ([2]; 20 μg/ml)
CCCc1nn(C(C)=O)c2c(C#N)c(=O)n3ccccc3c12 [S-26, 3-Acetyl-4-cyano-1-propyl-5H-pyrazolo[4,3-a]quinolizin-5-one]	55%	18%		
CCc1nn(C(C)=O)c2c(C#N)c(=O)n3ccccc3c12 [S-31]			75%	33%
CC(=O)n1nc(CC(C)C)c2c1c(C#N)c(=O)n1ccccc21 [S-38]	40%	4%		
